Results published in patent US6583180B2, “Glucocorticoid receptor modulators” (Abbott Laboratories, priority 2001, dated 2003).

Tests used:
[1] = system: obese diabetic db/db transgenic mice; conditions: Friedman et al. 1997; cited from earlier work
[2] = target: T1, progesterone receptor (PR) (Homo sapiens, UniProt P06401); assay: Radioligand binding assay for progesterone receptor (similar protocol);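 note: radioligand binding measured with cytosol preparations containing the human progesterone receptor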
T1 sequence (P06401 1-933): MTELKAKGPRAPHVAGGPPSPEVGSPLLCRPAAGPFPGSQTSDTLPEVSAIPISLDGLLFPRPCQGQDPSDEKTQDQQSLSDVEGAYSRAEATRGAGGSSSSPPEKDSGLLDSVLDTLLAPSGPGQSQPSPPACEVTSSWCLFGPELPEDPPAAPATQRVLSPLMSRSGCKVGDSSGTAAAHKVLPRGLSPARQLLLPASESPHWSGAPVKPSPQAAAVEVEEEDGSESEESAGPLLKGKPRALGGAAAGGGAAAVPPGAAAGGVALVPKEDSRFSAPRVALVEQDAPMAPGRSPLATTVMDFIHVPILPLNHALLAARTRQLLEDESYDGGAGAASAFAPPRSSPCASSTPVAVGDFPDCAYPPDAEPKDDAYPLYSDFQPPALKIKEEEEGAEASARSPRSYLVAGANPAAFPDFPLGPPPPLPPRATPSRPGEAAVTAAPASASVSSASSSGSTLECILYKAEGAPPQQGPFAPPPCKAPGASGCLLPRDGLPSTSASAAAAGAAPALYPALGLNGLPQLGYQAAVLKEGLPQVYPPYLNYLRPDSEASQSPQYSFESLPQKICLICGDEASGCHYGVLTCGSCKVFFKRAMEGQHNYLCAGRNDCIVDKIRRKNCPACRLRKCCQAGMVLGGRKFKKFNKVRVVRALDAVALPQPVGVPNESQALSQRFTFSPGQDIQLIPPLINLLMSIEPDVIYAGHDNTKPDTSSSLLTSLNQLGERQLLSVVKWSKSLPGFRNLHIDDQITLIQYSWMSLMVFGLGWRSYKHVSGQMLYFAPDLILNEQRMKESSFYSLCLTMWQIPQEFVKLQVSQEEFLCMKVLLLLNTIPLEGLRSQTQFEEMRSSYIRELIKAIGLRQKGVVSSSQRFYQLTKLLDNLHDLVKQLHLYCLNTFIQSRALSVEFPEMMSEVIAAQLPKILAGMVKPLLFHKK
Source text: Methods for Radiolipand Binding Studies with Human Glucocorticoid and Progesterone Receptor Cytosol

[3] = target: T2, Human glucocorticoid receptors (Homo sapiens, UniProt P04150); assay: Radioligand filter binding assay, displacement of 3[H]-dexamethasone from hGR; conditions: read-out: GR Binding (% Inhibition at 1.7 μM)
T2 construct: made in house; host or cells: Sf9 insect cells, recombinant baculovirus (BAC-TO-BAC)
T2 sequence (P04150 1-777): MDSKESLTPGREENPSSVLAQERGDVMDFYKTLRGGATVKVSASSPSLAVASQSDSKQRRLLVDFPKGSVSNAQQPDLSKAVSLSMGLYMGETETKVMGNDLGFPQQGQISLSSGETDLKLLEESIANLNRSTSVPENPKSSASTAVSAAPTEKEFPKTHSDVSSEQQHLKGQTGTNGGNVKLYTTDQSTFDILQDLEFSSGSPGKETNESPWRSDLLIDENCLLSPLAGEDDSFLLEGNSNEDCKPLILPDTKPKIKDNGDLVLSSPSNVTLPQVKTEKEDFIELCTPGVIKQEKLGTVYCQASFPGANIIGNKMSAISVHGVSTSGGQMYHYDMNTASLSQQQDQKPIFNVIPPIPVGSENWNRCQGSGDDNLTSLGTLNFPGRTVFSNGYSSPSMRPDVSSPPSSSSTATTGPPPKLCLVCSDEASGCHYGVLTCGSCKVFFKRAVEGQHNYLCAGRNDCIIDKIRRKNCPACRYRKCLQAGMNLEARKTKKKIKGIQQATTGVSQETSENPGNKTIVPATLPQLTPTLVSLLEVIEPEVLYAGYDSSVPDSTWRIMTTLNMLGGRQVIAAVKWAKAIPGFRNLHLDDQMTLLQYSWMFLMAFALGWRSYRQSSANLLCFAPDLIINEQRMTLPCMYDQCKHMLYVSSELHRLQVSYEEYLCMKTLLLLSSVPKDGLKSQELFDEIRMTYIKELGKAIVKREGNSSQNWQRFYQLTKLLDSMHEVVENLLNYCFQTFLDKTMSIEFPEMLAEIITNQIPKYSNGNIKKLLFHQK
In short: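 Recombinant hGR extract from baculovirus-infected Sf9 cells (final ~1 nM receptor) incubated with ³H-dexamethasone and test compound dilutions in duplicate, EDTA/phosphate pH 8 buffer with MTG, overnight (15-20 h) at +4° C. Bound label collected on PEI-treated GF/B filters and scintillation-counted; IC50 from four-parameter fit of corrected cpm.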

Row | Compound | reduction of plasma glucose levels [1] [%] | IC50 [2] [nM] | inhibition at 1.7 µM [3] [%]
1 | CC#C[C@]1(O)CC[C@H]2[C@@H]3CCC4=CC(=O)CCC4=C3[C@@H](c3ccc(N(C)C)cc3)C[C@@]21C [Mifepristone] | 50 | – | –
2 | Cc1c(NS(C)(=O)=O)cccc1N(Cc1ccccc1)Cc1ccc(Oc2ccc(CCC(=O)NCCC(=O)O)cc2)cc1 [Example 105, N-[3-(4-{4-[(benzyl{2-methyl-3-[(methylsulfonyl)amino]phenyl}amino)methyl]phenoxy}phenyl)propanoyl]-beta-alanine] | – | 685 | 96.2
3 | Cc1c(NS(C)(=O)=O)cccc1N(Cc1ccc(Oc2cccc(OCCCC(=O)NCCC(=O)O)c2)cc1)Cc1ccc(F)cc1F [Example 324, N-(4-(3-(4-(((2,4-difluorobenzyl)(2-methyl-3-((methylsulfonyl)amino)phenyl)amino)methyl)phenoxy)phenoxy)butanoyl)-beta-alanine] | – | 123 | 97.4
4 | Cc1c(NS(C)(=O)=O)cccc1N(Cc1ccc(Oc2cccc(OCC(=O)O)c2)cc1)Cc1ccc(F)cc1F [Example 110, (3-{4-[((2,4-difluorobenzyl){2-methyl-3-[(methylsulfonyl)amino]phenyl}amino)methyl]phenoxy}phenoxy)acetic acid] | – | 214 | 96.5
5 | Cc1c(NS(C)(=O)=O)cccc1N(Cc1ccc(OCc2ccco2)cc1)Cc1ccc(F)cc1F [Example 155, N-(3-{(2,4-difluorobenzyl)[4-(2-furylmethoxy)benzyl]amino}-2-methylphenyl)methanesulfonamide] | – | 499 | 92.8
6 | Cc1c(NS(C)(=O)=O)cccc1N(Cc1ccc(OCc2ccccc2)cc1)Cc1ccc(F)cc1F [Example 34, N-{3-[[4-(benzyloxy)benzyl](2,4-difluorobenzyl)amino]-2-methylphenyl}methanesulfonamide] | – | > 10000 | 90
7 | Cc1c(NS(C)(=O)=O)cccc1N(Cc1ccc(Oc2ccc(CCCC(=O)NCCCN3CCCC3=O)cc2)cc1)Cc1ccc(F)cc1F [Example 75, 4-(4-{4-[((2,4-difluorobenzyl){2-methyl-3-[(methylsulfonyl)amino]phenyl}amino)methyl]phenoxy}phenyl)-N-[3-(2-oxopyrrolidin-1-yl)propyl]butanamide] | – | 2350 | 98.3
8 | Cc1c(NS(C)(=O)=O)cccc1N(Cc1ccc(Oc2cccc(OCC(=O)O)c2)cc1)Cc1ccc(Cl)cc1F [Example 83, (3-{4-[((4-chloro-2-fluorobenzyl){2-methyl-3-[(methylsulfonyl)amino]phenyl}amino)methyl]phenoxy}phenoxy)acetic acid] | – | 177 | 98.1
9 | Cc1c(NS(C)(=O)=O)cccc1N(Cc1ccccc1)Cc1ccc(Oc2ccc(CCC(=O)NCCN3CCOCC3)cc2)cc1 [Example 147, 3-(4-{4-[(benzyl{2-methyl-3-[(metbylsulfonyl)amino]phenyl}amino)methyl]phenoxy}phenyl)-N-(2-morpholin-4-ylethyl)propanamide] | – | 1330 | 93.5
10 | Cc1c(NS(C)(=O)=O)cccc1N(Cc1ccccc1)Cc1ccc(Oc2ccc(CCC(=O)NCCCC(=O)O)cc2)cc1 [Example 106, 4-{[3-(4-{4-[(benzyl{2-methyl-3-[(methylsulfonyl)amino]phenyl}amino)methyl]phenoxy}phenyl)propanoyl]amino}butanoic acid] | – | 1290 | 96
11 | CCOC(=O)CCCc1ccc(Oc2ccc(CN(Cc3ccccc3)c3cccc(NS(C)(=O)=O)c3C)cc2)cc1 [Example 64, ethyl 4-(4-{4-[(benzyl{2-methyl-3-[(methylsulfonyl)amino]phenyl}amino)methyl]phenoxy}phenyl)butanoate] | – | 1180 | 93.5
12 | COCCOCCOc1cccc(Oc2ccc(CN(Cc3ccccc3)c3cccc(NS(C)(=O)=O)c3C)cc2)c1 [Example 69, N-{3-[benzyl(4-{3-[2-(2-methoxyethoxy)ethoxy]phenoxy}benzyl)amino]-2-methylphenyl}methanesulfonamide] | – | 122 | 86.9
13 | Cc1c(NS(C)(=O)=O)cccc1N(Cc1ccccc1)Cc1ccc(Oc2cccc(OC(C)C(=O)O)c2)cc1 (stereo not shown) [Example 111, 2-(3-{4-[(benzyl{2-methyl-3-[(methylsulfonyl)amino]phenyl}amino)methyl]phenoxy}phenoxy)propanoic acid] | – | 773 | 95.3
14 | Cc1c(NS(C)(=O)=O)cccc1N(Cc1ccccc1F)Cc1ccc(F)cc1F [Example 23, N-{3-[(2,4-difluorobenzyl)(2-fluorobenzyl)amino]-2-methylphenyl}methanesulfonamide] | – | 920 | 92
15 | Cc1c(NS(C)(=O)=O)cccc1N(Cc1ccccc1Br)Cc1ccccc1Br [Example 1, N-{3-[bis(2-bromobenzyl)amino]-2-methylphenyl}methanesulfonamide] | – | 600 | 88.1
16 | COCCOc1cc(Oc2ccc(CN(Cc3ccccc3)c3cccc(NS(C)(=O)=O)c3C)cc2)ccc1CCCC(=O)O [Example 63] | – | 648 | 96.2
17 | Cc1c(NS(C)(=O)=O)cccc1N(Cc1ccc(F)cc1)Cc1ccc(Oc2ccc(CCC(=O)O)cc2)cc1 [Example 85, 3-(4-{4-[((4-fluorobenzyl){2-methyl-3-[(methylsulfonyl)amino]phenyl}amino)methyl]phenoxy}phenyl)propanoic acid] | – | 351 | 96.9
18 | Cc1c(NS(C)(=O)=O)cccc1N(Cc1ccccc1)Cc1ccc(Oc2ccc(CCCCO)cc2)cc1 [Example 101, N-[3-(benzyl{4-[4-(4-hydroxybutyl)phenoxy]benzyl}amino)-2-methylphenyl]methanesulfonamide] | – | 1030 | 92.9
19 | Cc1c(NS(C)(=O)=O)cccc1N(Cc1ccccc1)Cc1ccc(Oc2ccc(CCC(=O)NCCO)cc2)cc1 [Example 152, 3-(4-{4-[(benzyl{2-methyl-3-[(methylsulfonyl)amino]phenyl}amino)methyl]phenoxy}phenyl)-N-(2-hydroxyethyl)propanamide] | – | 896 | 94.3
20 | Cc1c(NS(C)(=O)=O)cccc1N(Cc1ccccc1)Cc1ccc(Oc2ccc(CCC(=O)NCCCCO)cc2)cc1 [Example 150, 3-(4-{4-[(benzyl{2-methyl-3-[(methylsulfonyl)amino]phenyl}amino)methyl]phenoxy}phenyl)-N-(4-hydroxybutyl)propanamide] | – | 2550 | 94.3
21 | Cc1c(NS(C)(=O)=O)cccc1N(Cc1ccc(Oc2ccc(Cl)c(O)c2)cc1)Cc1ccc(F)cc1F [Example 322, N-(3-((4-(4-chloro-3-hydroxyphenoxy)benzyl)(2,4-difluorobenzyl)amino)-2-methylphenyl)methanesulfonamide] | – | 360 | 98.5
22 | Cc1c(NS(C)(=O)=O)cccc1N(Cc1ccccc1)Cc1ccc(Oc2cccc(OCCCNS(C)(=O)=O)c2)cc1 [Example 71, N-[3-(3-{4-[(benzyl{2-methyl-3-[(methylsulfonyl)amino]phenyl}amino)methyl]phenoxy}phenoxy)propyl]methanesulfonamid] | – | 537 | 95.2
